Laboratory results as given in patent US20230416275A1, “MODULATORS OF CYSTIC FIBROSIS TRANSMEMBRANE CONDUCTANCE REGULATOR” (VERTEX PHARMACEUTICALS INCORPORATED, priority 2020, published 2023).

Key:
F508del in NIH 3T3 cells = target: T1, F508del in NIH 3T3 cells (Homo sapiens, UniProt P13569, DEL508-508); test: 3T3 assay: membrane potential optical assay for F508del correction; type: cell-based, mouse; conditions: for EC50 / 3T3 Max Activity (%): F508del NIH 3T3 cells; for EC50: compound incubation 18-24 hours at 37° C., forskolin activation, read-out: 3T3 EC50; for 3T3 Max Activity (%) / Emax: efficacy compared to lumacaftor in combination with acutely added 300 nM Ivacaftor; for Emax: NIH3T3, F508del NIH 3T3 cells, read-out: 3T3 Max Activity (%)
T1 construct: expressed in transfected cells
Excerpt: a. Membrane Potential Optical Methods for Assaying F508del Modulation Properties of Compounds
The assay utilizes fluorescent voltage sensing dyes to measure changes in membrane potential using a fluorescent plate reader (e.g., FLIPR III, Molecular Devices, Inc.) as a readout for increase in functional F508del in NIH 3T3 cells. The driving force for the response is the creation of a chloride ion gradient in conjunction with channel activation by a single liquid addition step after the cells have previously been treated with compounds and subsequently loaded with a voltage sensing dye.
b. Identification of Corrector Compounds
To identify correctors of F508del, a single-addition HTS assay format was developed. This HTS assay utilizes fluorescent voltage sensing dyes to measure changes in membrane potential on the FLIPR III as a measurement for increase in gating (conductance) of F508del in F508del NIH 3T3 cells. The F508del NIH 3T3 cell cultures were incubated with the corrector compounds at a range of concentrations for 18-24 hours at 37° C., and subsequently loaded with a redistribution dye. The driving force for the response is a Cl^− ion gradient in conjunction with channel activation with forskolin in a single liquid addition step using a fluorescent plate reader such as FLIPR III.
Bath Solution #1: (in mM) NaCl 160, KCl 4.5, CaCl2 2, MgCl2 1, HEPES 10, pH 7.4 with NaOH.
Chloride-free bath solution: Chloride salts in Bath Solution #1 (above) are substituted with gluconate salts.
NIH3T3 mouse fibroblasts stably expressing F508del are used for optical measurements of membrane potential. The cells are maintained at 37° C. in 5% CO2 and 90% humidity in Dulbecco's modified Eagle's medium supplemented with 2 mM glutamine, 10% fetal bovine serum, 1×NEAA, b-ME, 1× pen/strep, and 25 mM HEPES in 175 cm^2 culture flasks. For all optical assays, the cells were seeded at ˜20,000/well in 384-well Matrigel-coated plates. For the correction assays, the cells are cultured at 37° C. with and without compounds for 16-24 hours.

[1] = target: CFTR-mediated chloride transport in human intestinal epithelial enteroid cells (Homo sapiens, UniProt P13569); test: Membrane potential dye, Enteroid Assay A; type: cell-based; conditions: for Ent. A Max Activity (%): % of chloride transport of triple combination control (3 μM N-[(6-amino-2-pyridyl)sulfonyl]-6-(3-fluoro-5-isobutoxy-phenyl)-2-[(4S)-2,2,4-trimethylpyrrolidin-1-yl]pyridine-3-carboxamide, 3 μM tezacaftor, 300 nM acute ivacaftor); for EC50: enteroid cells, 18-24 hours incubation, acute 10 μM forskolin and 300 nM ivacaftor, read-out: Ent. A EC50
Procedure: Base medium (ADF+++) consisted of Advanced DMEM/Ham's F12, 2 mM Glutamax, 10 mM HEPES, […] penicillin/streptomycin.
Intestinal enteroid maintenance medium (IEMM) consisted of ADF+++, 1×B27 supplement, 1×N2 supplement, 1.25 mM N-acetyl cysteine, 10 mM Nicotinamide, 50 ng/mL hEGF, 10 nM Gastrin, 1 μg/mL hR-spondin-1, 100 ng/mL hNoggin, TGF-b type 1 inhibitor A-83-01, 100 μg/mL Primocin, 10 μM P38 MAPK inhibitor SB202190.
Bath 1 Buffer consisted of 1 mM MgCl2, 160 mM NaCl, 4.5 mM KCl, 10 mM HEPES, 10 mM Glucose, 2 mM CaCl2.
Chloride Free Buffer consisted of 1 mM Magnesium Gluconate, 2 mM Calcium Gluconate, 4.5 mM Potassium Gluconate, 160 mM Sodium Gluconate, 10 mM HEPES, 10 mM Glucose.
Bath1 Dye Solution consisted of Bath 1 Buffer, 0.04% Pluronic F127, 20 μM Methyl Oxonol, 30 μM CaCCinh-A01, 30 μM Chicago Sky Blue.
Chloride Free Dye Solution consisted of Chloride Free Buffer, 0.04% Pluronic F127, 20 μM Methyl Oxonol, 30 μM CaCCinh-A01, 30 μM Chicago Sky Blue.
Chloride Free Dye Stimulation Solution consisted of Chloride Free Dye Solution, 10 μM forskolin, 100 μM IBMX, and 300 nM Compound III.
Human intestinal epithelial enteroid cells were obtained from the Hubrecht Institute for Developmental Biology and Stem Cell Research, Utrecht, The Netherlands and expanded in T-Flasks as previously described (Dekkers J F, Wiegerinck C L, de Jonge H R, Bronsveld I, Janssens H M, de Winter-de Groot K M, Brandsma A M, de Jong N W M, Bijvelds M J C, Scholte B J, Nieuwenhuis E E S, van den Brink S, Clevers H, van der Ent C K, Middendorp S and M Beekman J M. A functional CFTR assay using primary cystic fibrosis intestinal organoids. Nat Med. 2013 July; 19(7):939-45).
c. Enteroid Cell Harvesting and Seeding
Cells were recovered in cell recovery solution, collected by centrifugation at 650 rpm for 5 minutes at 4° C., resuspended in TrypLE and incubated for 5 minutes at 37° C. Cells were then collected by centrifugation at 650 rpm for 5 minutes at 4° C. and resuspended in IEMM containing 10 μM ROCK inhibitor (RI). The cell suspension was passed through a 40 μm cell strainer and resuspended at 1×10^6 cells/mL in IEMM containing 10 μM RI. Cells were seeded at 5000 cells/well into multi-well plates and incubated for overnight at 37° C., 95% humidity and 5% CO2 prior to assay.
d. Membrane Potential Dye, Enteroid Assay A
Enteroid cells were incubated with test compound in IEMM for 18-24 hours at 37° C., 95% humidity and 5% CO2. […] Briefly, cells were washed 5 times in Bath 1 Buffer. Bath 1 Dye Solution was added, and the cells were incubated for 25 minutes at room temperature. Following dye incubation, cells were washed 3 times in Chloride Free Dye Solution. Chloride transport was initiated by addition of Chloride Free Dye Stimulation Solution and the fluorescence signal was read for 15 minutes. […] Chloride transport was then expressed as a percentage of the chloride transport following treatment with 3 μM N-[(6-amino-2-pyridyl)sulfonyl]-6-(3-fluoro-5-isobutoxy-phenyl)-2-[(4S)-2,2,4-trimethylpyrrolidin-1-yl]pyridine-3-carboxamide, 3 μM (R)-1-(2,2-difluorobenzo[d][1,3]dioxol-5-yl)-N-(1-(2,3-dihydroxypropyl)-6-fluoro-2-(1-hydroxy-2-methylpropan-2-yl)-1H-indol-5-yl)cyclopropanecarboxamide and 300 nM acute N-[2,4-bis(1,1-dimethylethyl)-5-hydroxyphenyl]-1,4-dihydro-4-oxoquinoline-3-carboxamide triple combination control (% Activity).

T1 sequence (P13569 with tags, fused parts or gaps DEL508-508): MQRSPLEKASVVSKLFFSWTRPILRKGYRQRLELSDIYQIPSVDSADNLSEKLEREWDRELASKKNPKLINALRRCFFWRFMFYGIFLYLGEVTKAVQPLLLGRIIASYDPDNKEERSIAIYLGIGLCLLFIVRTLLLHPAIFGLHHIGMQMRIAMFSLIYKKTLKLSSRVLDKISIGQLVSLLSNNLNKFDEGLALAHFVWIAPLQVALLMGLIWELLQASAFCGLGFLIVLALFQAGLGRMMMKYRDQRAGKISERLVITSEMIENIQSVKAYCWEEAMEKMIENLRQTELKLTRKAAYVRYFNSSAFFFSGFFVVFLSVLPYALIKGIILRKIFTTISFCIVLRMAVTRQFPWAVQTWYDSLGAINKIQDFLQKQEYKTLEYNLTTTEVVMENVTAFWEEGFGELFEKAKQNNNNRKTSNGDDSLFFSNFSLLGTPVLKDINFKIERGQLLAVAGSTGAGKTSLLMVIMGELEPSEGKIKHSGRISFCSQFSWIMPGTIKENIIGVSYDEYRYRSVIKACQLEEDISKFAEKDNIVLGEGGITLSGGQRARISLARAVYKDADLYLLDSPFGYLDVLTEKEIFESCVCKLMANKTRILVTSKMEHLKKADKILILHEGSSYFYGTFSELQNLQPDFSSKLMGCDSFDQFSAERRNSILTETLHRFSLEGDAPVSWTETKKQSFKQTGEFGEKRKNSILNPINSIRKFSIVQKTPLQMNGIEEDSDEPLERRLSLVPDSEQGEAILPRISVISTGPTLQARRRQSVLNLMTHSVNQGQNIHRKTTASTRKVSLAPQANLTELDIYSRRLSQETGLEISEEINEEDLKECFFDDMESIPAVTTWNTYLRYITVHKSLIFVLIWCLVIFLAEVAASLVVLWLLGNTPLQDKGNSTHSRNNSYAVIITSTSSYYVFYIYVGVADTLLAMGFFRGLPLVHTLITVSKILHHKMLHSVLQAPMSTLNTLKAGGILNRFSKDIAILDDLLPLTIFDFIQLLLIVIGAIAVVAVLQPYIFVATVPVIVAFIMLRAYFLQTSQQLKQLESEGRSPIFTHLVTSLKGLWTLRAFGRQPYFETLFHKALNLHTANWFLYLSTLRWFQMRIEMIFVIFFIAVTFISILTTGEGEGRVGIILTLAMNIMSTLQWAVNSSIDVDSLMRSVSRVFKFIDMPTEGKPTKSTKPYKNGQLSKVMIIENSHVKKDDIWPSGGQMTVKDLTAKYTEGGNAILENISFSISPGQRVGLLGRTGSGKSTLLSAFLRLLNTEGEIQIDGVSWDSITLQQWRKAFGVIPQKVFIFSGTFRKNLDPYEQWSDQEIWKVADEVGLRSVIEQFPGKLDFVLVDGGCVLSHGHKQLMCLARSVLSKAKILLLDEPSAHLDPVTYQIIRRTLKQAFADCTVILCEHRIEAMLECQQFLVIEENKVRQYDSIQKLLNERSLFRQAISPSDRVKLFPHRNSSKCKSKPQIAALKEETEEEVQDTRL
CFTR-mediated chloride transport in human intestinal epithelial enteroid cells, sequence (P13569 with tags, fused parts or gaps DEL508-508): as above

Compound	EC50 (F508del in NIH 3T3 cells) [µM]	3T3 Max Activity (%) (F508del in NIH 3T3 cells)	EC50 [1] [µM]	Emax (F508del in NIH 3T3 cells) [%]	Ent. A Max Activity (%) [1]
Cc1cccc(C)c1-c1cc2nc(n1)NS(=O)(=O)c1cccc(c1)NC(=O)C1CNCC(C1)O2 (centres unmarked) [Compound 51]	3 to 30	+++ (+++ is >60%)	3 to 30	–	++ (++ is 30-60%)
Cc1cccc(C)c1-c1cc2nc(n1)NS(=O)(=O)c1cccc(c1)NC(=O)[C@@H]1C[C@@H](CN(CCC(C)(C)C)C1)O2 [Compound 5, (3S,7R)-5-(3,3-Dimethylbutyl)-19-(2,6-dimethylphenyl)-2-oxa-15λ^6-thia-5,9,16,18,21-pentaazatetracyclo[15.3.1.13,7.110,14]tricosa-1(20),10,12,14(22),17(21),18-hexaene-8,15,15-trione]	< 1	–	< 1	> 60	+++ (+++ is >60%)
Cc1cccc(C)c1-c1cc2nc(n1)NS(=O)(=O)c1cccc(c1)NC(=O)[C@@H]1CNC[C@H](C1)O2 [Compound 48]	1 to 3	–	–	> 60	++ (++ is 30-60%)
Cc1cccc(C)c1-c1cc2nc(n1)NS(=O)(=O)c1cccc(c1)NC(=O)[C@H]1C[C@@H](CN(C(=O)NC(C)(C)C)C1)O2 [Compound 42]	3 to 30	–	–	> 60	+ (+ is <30%)
Cc1cccc(C)c1-c1cc2nc(n1)NS(=O)(=O)c1cccc(c1)NC(=O)[C@H]1CNC[C@H](C1)O2 [Compound 49]	1 to 3	–	–	> 60	+ (+ is <30%)
Cc1cccc(C)c1-c1cc2nc(n1)NS(=O)(=O)c1cccc(c1)NC(=O)c1cccc(c1)O2 [Compound 53, 5-(2,6-Dimethylphenyl)-9,9-dioxo-2-oxa-9λ^6-thia-6,8,15,23-tetraazatetracyclo[15.3.1.13,7.110,14]tricosa-1(20),3,5,7(23),10(22),11,13,17(21),18-nonaen-16-one]	< 1	–	3 to 30	> 60	+++ (+++ is >60%)
Cc1ccc2cc1Oc1cc(-c3c(C)cccc3C)nc(n1)NS(=O)(=O)c1cccc(c1)NC2=O [Compound 57, 5-(2,6-Dimethylphenyl)-20-methyl-2-oxa-9λ^6-thia-6,8,15,23-tetraazatetracyclo[15.3.1.13,7.110,14]tricosa-1(21),3(23),4,6,10,12,14(22),17,19-nonaene-9,9,16-trione]	< 1	–	< 1	> 60	++ (++ is 30-60%)
Cc1cccc(C)c1-c1cc2nc(c1)Oc1cccc(c1)C(=O)Nc1cccc(c1)S(=O)(=O)N2 [Compound 76, 5-(2,6-Dimethylphenyl)-9,9-dioxo-2-oxa-9λ^6-thia-8,15,23-triazatetracyclo[15.3.1.13,7.110,14]tricosa-1(21),3(23),4,6,10,12,14(22),17,19-nonaen-16-one]	–	–	–	< 30	+ (+ is <30%)
Cc1cccc(C)c1-c1cc2nc(n1)NS(=O)(=O)c1cccc(c1)NC(=O)[C@@H]1C[C@@H](CN(CC(C3CC3)C3CC3)C1)O2 [Compound 24]	< 1	–	< 1	> 60	++ (++ is 30-60%)
Cc1cccc(C)c1-c1cc2nc(n1)NS(=O)(=O)c1cccc(c1)NC(=O)[C@@H]1C[C@@H](CN(C(=O)OCCC(C)C)C1)O2 [Compound 8, 3-Methylbutyl (3S,7R)-19-(2,6-dimethylphenyl)-8,15,15-trioxo-2-oxa-15λ^6-thia-5,9,16,18,21-pentaazatetracyclo[15.3.1.13,7.110,14]tricosa-1(21),10(22),11,13,17,19-hexaene-5-carboxylate]	< 1	–	< 1	–	+++ (+++ is >60%)
Cc1cccc(C)c1-c1cc2nc(n1)NS(=O)(=O)c1cccc(c1)NC(=O)[C@@H]1C[C@@H](CN(C(=O)CC(C)(C)C)C1)O2 [Compound 45]	< 1	–	1 to 3	> 60	+++ (+++ is >60%)

Continued, in another order:

EC50 (F508del in NIH 3T3 cells) [µM]	3T3 Max Activity (%) (F508del in NIH 3T3 cells)	EC50 [1] [µM]	Emax (F508del in NIH 3T3 cells) [%]	Compound	Ent. A Max Activity (%) [1]
< 1	–	1 to 3	> 60	Cc1cc2cc(c1)C(=O)Nc1cccc(c1)S(=O)(=O)Nc1nc(cc(-c3c(C)cccc3C)n1)O2 [Compound 110]	++ (++ is 30-60%)
< 1	–	< 1	> 60	Cc1cccc(C)c1-c1cc2nc(n1)NS(=O)(=O)c1cccc(c1)NC(=O)C1CC(CN(C(=O)OC(C)(C)C)C1)O2 (centres unmarked) [Compound 123]	++ (++ is 30-60%)
< 1	–	3 to 30	> 60	Cc1cccc(C)c1-c1cc2nc(n1)NS(=O)(=O)c1cccc(c1)NC(=O)CCc1cccc(c1)O2 [Compound 108]	+++ (+++ is >60%)
1 to 3	+++ (+++ is >60%)	3 to 30	–	Cc1cccc(C)c1-c1cc2nc(n1)NS(=O)(=O)c1cccc(c1)NC(=O)C1CC(CN(C(=O)OC(C)(C)C)C1)O2 (centres unmarked) [Compound 124]	++ (++ is 30-60%)
< 1	–	1 to 3	> 60	Cc1cccc(C)c1-c1cc2nc(n1)NS(=O)(=O)c1cccc(c1)NC(=O)c1ccc(Cl)c(c1)O2 [Compound 117]	+++ (+++ is >60%)
< 1	–	3 to 30	> 60	CC(C)c1ccccc1-c1cc2nc(n1)NS(=O)(=O)c1cccc(c1)NC(=O)c1cccc(c1)O2 [Compound 81]	++ (++ is 30-60%)
